The subject of assay [1] is HepG2 cells. Nature of the assay: Post-thaw percentage cell recovery of monolayers in 96 well plates (Trypan Blue counts). The note with it: −80 °C, 24 h post-thaw, additives supplemented with 10% DMSO. It is filed as cell-based, Human. The protocol: (§1) HepG2 cells (density dependent on assay) and mouse hepatocytes (30k cell per well) were plated on rat tail type I collagen (100 μg mL^−1) coated 96 well plates and incubated for 24 hours. The cryoprotectant solution was prepared in advance. Hornbeam pollen (0.8 g) was suspended in sterile water (10 mL) for 24 h at 4 °C. The solution was sterile filtered and mixed 1 : 1 with either Eagle's minimum essential base medium (HepG2) or Williams E base medium (Mouse hepatocytes) supplemented with 20% FBS and 20% DMSO (final concentration 10%) to produce the cryopreservation formulation. The cell culture medium of the cells was replaced with 100 μL of the prechilled cryopreservation formulation (4 °C) and the plates were placed on a Corning XT CoolSink 96F and in a −80 °C freezer overnight. HepG2 cells and hepatocytes were also cryopreserved with 10% DMSO alone in cell culture medium for comparison. To thaw the cells, 150 μL of warm complete/thawing cell culture medium (37 °C) was added and the plates were placed in the incubator for 12 min. […]
(§2) HepG2 cells were cryopreserved between 1.6–30k cell per well and hepatocytes at a density of 30k cell per well. […] Freeze/Thaw and non-frozen HepG2 cells were counted daily until 80–90% confluency was reached to determine proliferation rates. […]

The test system of another assay is A549 cells. Nature of the assay: Post-thaw percentage cell recovery of monolayers in 96 well plates. The class given is cell-based, Human. The following applies: 24 h post-thaw. The protocol: °C and 150 µL of warm complete cell medium (37 °C) was added. The cells were placed in the incubator for 12 mins, to allow thawing, and the solutions were replaced with 200 µL of warm complete cell medium (37 °C). The cells were placed in the incubator for a further 24 h.
Percentage cell recovery was determined by dissociating cells with trypsin (0.25%) and EDTA (1 mM), staining the cells with trypan blue (to count membrane intact cells) and comparing cell counts immediately before and 24 h after freeze/thaw. A549 cells were cryopreserved using the same approach as confluent monolayers (20k cells/well) and varying cell densities (outlined throughout) as another comparative cell line, using Ham's F-12K (Kaighn's) Medium supplemented with 10% FBS and 1% PSA as the complete growth medium and Ham's F-12K (Kaighn's) Medium alone as the base medium. Cell recovery values were also obtained for plates containing A549 and HepG2 cells stored for over 1 month in a -80 °C freezer.
1.5 Assessing Cellular Health
HepG2 cells (7.5k cell/well) were seeded in collagen (12.7 µg/cm2) coated 96 well plates and A549 cells (7.5k cell/well) were seeded in collagen uncoated 96 well plates. The plates were freeze/thawed as described in section 1.4. […]

The subject of assay [2] is primary mouse hepatocytes. Nature of the assay: Post-thaw percentage cell recovery of monolayers in 96 well plates (Trypan Blue counts). It is filed as cell-based. The following applies: primary mouse hepatocyte monolayers, 24 h post-thaw. How it is done: as §1, §2
Assay [3] deals with HepG2 cells. Put plainly: Drug dose–response, resazurin reduction cell viability. It is filed as cell-based. The note with it: Homo sapiens, HepG2, 24 h, 24 h treatment. How it is done:
Statistical analysis and data visualization were performed using GraphPad Prism 8 (La Jolla, California, USA). The Shapiro-Wilk test and Levene test were utilized to assess the normality of the data and equality of variances between groups. If the data met the assumptions of normality and equal variance, it was reported as mean ± SEM. Statistical significance between the means of 2 groups were assessed using an unpaired (independent) T-test and for 2+ groups a one-way analysis of variance (ANOVA), followed by Tukey's post hoc analysis, was used. […] Statistical significance between means was determined using Welch's t-test. The significance levels were represented as follows: not significant (ns) for p ≥ 0.05, * for p ≤ 0.05, ** for p ≤ 0.01, and **** for p ≤ 0.0001. Dose–response curves were generated using nonlinear regression with a variable slope (four parameters) fitted by the least squares regression method, without any weighting. GraphPad determined the EC50 values based on the fitting process. […] Fluorescence measurements were recorded with excitation and emission at 530/25 nm and 590/30 using a BioTek Synergy HT microplate reader. Wells with resazurin solution alone were also measured for background subtraction and cells untreated with pharmaceutically active compounds were measured as a maximum resazurin reduction value. […] Cell culture medium was replaced by cell culture media supplemented with acetaminophen (0–92.6 mM), diclofenac (0–3.4 mM), doxorubicin (0–9.2 mM), metformin (0–310 µM), phenformin (0–97.4 µM) and valproic acid (0–50 mM) and […] The cell culture medium was replaced with 100 µL of resazurin solution, prepared by dissolving 1 resazurin tablet (Scientific Laboratory Supplies, Nottingham, UK) in 50 mL of phenol-free DMEM/F-12 medium supplemented with 10% FBS and sterile filtered. The cells were incubated for 2 h in […] Fluorescence measurements were recorded with excitation and emission at 530/25 nm and 590/30 using a BioTek Synergy HT microplate reader. Wells with resazurin solution alone were also measured for background subtraction and cells untreated with pharmaceutically active compounds were measured as a maximum resazurin reduction value. Percentage cell viability was reported using the fluorescence readings using the following equation: Sample Fluorescence − Background Fluorescence x 100 Maximum (Untreated) Fluorescence − Background Fluorescence 1.7 Primary Hepatocyte Cryopreservation Mice were bred at the University of Warwick after local AWERB and Home Office approvals (PP3644080). Hepatocytes were isolated from adult (8- to 12-weeks old) male and female C57BL/6NCrl mice livers, via a two-step perfusion process. After cervical dislocation, the peritoneal cavity was open and a 27G needle was inserted into the vena cava. Perfusion was carried out through the vena cava at a flow rate of 6 mL.min-1 for 10 mins with buffers warmed S11

Assay [4] concerns primary mouse hepatocytes. The assay is described as above. The class given is cell-based. The note with it: Hepatocyte, 24 h, 24 h treatment.
Protocol: Non-frozen and freeze/thaw hepatocytes were treated with diclofenac (0–3.4 μM) and metformin (0–77.4 mM) and placed in a humidified environment at 37 °C and 5% CO2 for 24 h. The cell culture medium was replaced with 100 μL of resazurin solution and the cells were incubated for 2 h in a humidified environment at 37 °C and 5% CO2. Fluorescence measurements were recorded with excitation and emission at 530/25 nm and 590/30 using a BioTek Synergy HT microplate reader. […] Percentage cell viability was reported using the fluorescence readings using the following equation: [drawing 2]
The cell culture medium of freeze/thaw hepatocytes, produced in section 1.7, was replaced by
maintenance medium supplemented with diclofenac (0–3.4 mM) and metformin (0–77 µM)
and placed in a humidified environment at 37 °C and 5% CO2 for 24 h. The cell culture medium
(Scientific Laboratory Supplies, Nottingham, UK) in 50 mL of maintenance medium
supplemented with 10% FBS and sterile filtered. The cells were incubated for 24 h in a
humidified environment at 37 °C and 5% CO2. Fluorescence measurements were recorded with
𝑆𝑎𝑚𝑝𝑙𝑒 𝐹𝑙𝑢𝑜𝑟𝑒𝑠𝑐𝑒𝑛𝑐𝑒 − 𝐵𝑎𝑐𝑘𝑔𝑟𝑜𝑢𝑛𝑑 𝐹𝑙𝑢𝑜𝑟𝑒𝑠𝑐𝑒𝑛𝑐𝑒 x 100
𝑀𝑎𝑥𝑖𝑚𝑢𝑚 (𝑈𝑛𝑡𝑟𝑒𝑎𝑡𝑒𝑑) 𝐹𝑙𝑢𝑜𝑟𝑒𝑠𝑐𝑒𝑛𝑐𝑒 − 𝐵𝑎𝑐𝑘𝑔𝑟𝑜𝑢𝑛𝑑 𝐹𝑙𝑢𝑜𝑟𝑒𝑠𝑐𝑒𝑛𝑐𝑒
Assay [5] relates to HepG2 cells. The following applies: cited from earlier work; for Post-thaw cell recovery after preconditioning: HepG2 cells and other cell lines, increased from approximately 10–20% ref 22,23.
Setting [6] is: Freeze/Thaw HepG2 cells (24 h post-thaw).
Setting [7] is: Freeze/Thaw adherent primary mouse hepatocytes.
The mark [8] stands for this setting: Non-frozen primary mouse hepatocytes.

SMILES strings stand for the structures. Where “and” joins values, the source holds several entries; their conditions need not be identical. Identical values can stand only once.

As to `C[S+](C)[O-]` [10% DMSO, dimethyl sulfoxide], the “Post-thaw percentage cell recovery” value in the assay on HepG2 cells [1] is 10% and 12.6%; in the assay with A549 cells, 29%; in assay [2] it was 50%.
For the compound `CC(=O)Nc1ccc(O)cc1` [Acetaminophen, acetaminophen], the EC50 was 11700 µM in the assay with HepG2 cells [3] (setting [6]) and 14200 µM in the assay on HepG2 cells [3] (Non-frozen HepG2 cells).
Take `O=C(O)Cc1ccccc1Nc1c(Cl)cccc1Cl` [Diclofenac, diclofenac]: the EC50 in assay [4] (setting [7]) stood at 880 µM; in assay [4] (setting [8]), 780 µM.
In the case of `COc1cccc2c1C(=O)c1c(O)c3c(c(O)c1C2=O)C[C@@](O)(C(=O)CO)C[C@@H]3O[C@H]1C[C@H](N)[C@H](O)[C@H](C)O1` [Doxorubicin, doxorubicin], the results for the EC50 with HepG2 cells [3] (setting [6]) and with HepG2 cells [3] (Non-frozen HepG2 cells) were 16.3 µM and 2 µM, respectively.
`CN(C)C(=N)N=C(N)N` [Metformin, metformin]: the EC50 in assay [4] (setting [7]) is 600 µM; in assay [4] (setting [8]), 780 µM; in the assay with HepG2 cells [3] (setting [6]), 4280 µM; in the assay on HepG2 cells [3] (Non-frozen HepG2 cells) it was 3780 µM.
Turning to `[H]/N=C(/N)N/C(=N/[H])NCCc1ccccc1` [Phenformin, phenformin], the values for the EC50 in the assay on HepG2 cells [3] (setting [6]) and with HepG2 cells [3] (Non-frozen HepG2 cells) were 290 µM and 330 µM, respectively.
In the same order, the values of `CCCC(CCC)C(=O)O` [VPA, valproic acid] are 1790 µM and 2880 µM.
For `CC(C)CCC[C@@H](C)[C@H]1CC[C@H]2[C@@H]3CC=C4C[C@@H](O)CC[C@]4(C)[C@H]3CC[C@]12C.O` [cholesterol monohydrate], in the assay on HepG2 cells [1], the “Post-thaw percentage cell recovery” value is on record as about 60%.
For `O=C(O)[C@@H]1CCCN1` [proline], the “Post-thaw cell recovery after preconditioning” value with HepG2 cells [5] is listed as 50%.
For `OC[C@H]1O[C@H](O[C@H]2O[C@H](CO)[C@@H](O)[C@H](O)[C@H]2O)[C@H](O)[C@@H](O)[C@@H]1O` [trehalose], the “Post-thaw cell recovery after preconditioning” value in the assay on HepG2 cells [5] is on record as 50%. In addition, the “Cell recovery after preconditioning with trehalose” value in the assay on HepG2 cells [5] (HepG2 monolayers ref 23) was 42%.

Usually EC50 stands for the midpoint of the concentration-response curve.

(Values after PMC10661096, “Cryopreservation of assay-ready hepatocyte monolayers by chemically-induced ice nucleation: preservation of hepatic function and hepatotoxicity screening capabilities” (Biomaterials Science, 2023).)
